Source: patent publication US10750743B2, “Pyridazinone herbicides” (E.I. DU PONT DE NEMOURS AND COMPANY, priority 2015, dated 2020)

Experiments:
Type in all cases: in vivo
[1] = test system: barnyardgrass (Echinochloa crus-galli); assay: Test A preemergence, directed soil spray, visual injury rating; details: Echinochloa crus-galli, pre-emergence, 240 h, 0 is no effect, 100 is complete control, read-out: Plant response rating (0 to 100 scale), Barnyardgrass; for pest or weed control at 125 g/ha: 125 g ai/ha; for pest or weed control at 500 g/ha: 500 g ai/ha
Summary of the method: (§1)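 Injury ratings, 0 (no effect) to 100 (complete control), were scored visually versus untreated plants roughly 10 d after treatment under greenhouse conditions. Treatments used surfactant-containing solvent formulations, sprayed onto soil preemergence or onto one- to two-leaf seedlings (2-10 cm) postemergence, grown in a loam-sand mix.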

[2] = test system: foxtail, giant (giant foxtail, Setaria faberii); assay: as above; details: Setaria faberi, pre-emergence, 240 h, 0 is no effect, 100 is complete control, read-out: Plant response rating (0 to 100 scale), Foxtail, Giant; for pest or weed control at 125 g/ha: 125 g ai/ha; for pest or weed control at 500 g/ha: 500 g ai/ha
Summary of the method: as §1

kochia (Kochia scoparia) [3] = assay: as above; details: Bassia scoparia, pre-emergence, 240 h, 0 is no effect, 100 is complete control, read-out: Plant response rating (0 to 100 scale), Kochia; for pest or weed control at 125 g/ha: 125 g ai/ha; for pest or weed control at 500 g/ha: 500 g ai/ha
Summary of the method: as §1

[4] = test system: pigweed (Amaranthus retroflexus); assay: as above; details: Amaranthus retroflexus, pre-emergence, 240 h, 0 is no effect, 100 is complete control, read-out: Plant response rating (0 to 100 scale), Pigweed; for pest or weed control at 125 g/ha: 125 g ai/ha; for pest or weed control at 500 g/ha: 500 g ai/ha
Summary of the method: as §1

[5] = test system: ragweed (common ragweed, Ambrosia elatior); assay: as above; details: Ambrosia artemisiifolia, pre-emergence, 240 h, 0 is no effect, 100 is complete control, read-out: Plant response rating (0 to 100 scale), Ragweed; for pest or weed control at 125 g/ha: 125 g ai/ha; for pest or weed control at 500 g/ha: 500 g ai/ha
Summary of the method: as §1

[6] = test system: ryegrass, It. (Italian ryegrass, Lolium multiflorum); assay: as above; details: Lolium multiflorum, pre-emergence, 240 h, 0 is no effect, 100 is complete control, read-out: Plant response rating (0 to 100 scale), Ryegrass, It.; for pest or weed control at 125 g/ha: 125 g ai/ha; for pest or weed control at 500 g/ha: 500 g ai/ha
Summary of the method: as §1

[7] = test system: barnyardgrass (Echinochloa crus-galli); assay: Test B flooded paddy test, visual rating; details: Echinochloa crus-galli, 360 h; Flood, 250 g ai/ha, applied to paddy water, rated after 13 to 15 d; read-out: Barnyardgrass plant response rating (0 to 100 scale, 0 is no effect, 100 is complete control)
Summary of the method: (§2)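 Ratings use a 0-100 visual scale, where 100 is complete control, and compare treated plants with controls after 13 to 15 d of greenhouse growth. Compound went straight into paddy water kept 3 cm over the soil surface, applied to seedlings at the 2-leaf stage.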

[8] = test system: ducksalad (Heteranthera limosa); assay: Test B flooded paddy test, visual rating; details: Heteranthera limosa, 360 h; Flood, 250 g ai/ha, applied to paddy water, rated after 13 to 15 d; read-out: Ducksalad plant response rating (0 to 100 scale, 0 is no effect, 100 is complete control)
Summary of the method: as §2

rice (Oryza sativa) = assay: Test B flooded paddy test, visual rating; details: Oryza sativa, 360 h; Flood, 250 g ai/ha, applied to paddy water, rated after 13 to 15 d; read-out: Rice plant response rating (0 to 100 scale, 0 is no effect, 100 is complete control)
Summary of the method: as §2

[9] = test system: barnyardgrass (Echinochloa crus-galli); assay: Test A postemergence application, visual injury rating; details: Echinochloa crus-galli, post-emergence, 240 h, 0 to 100 scale, 0 no effect, 100 complete control, read-out: Barnyardgrass plant response rating; for pest or weed control at 125 g/ha: 125 g ai/ha; for pest or weed control at 500 g/ha: 500 g ai/ha
Summary of the method: as §1

[10] = test system: blackgrass (Alopecurus myosuroides); assay: as above; details: Alopecurus myosuroides, post-emergence, 240 h, 0 to 100 scale, 0 no effect, 100 complete control, read-out: Blackgrass plant response rating; for pest or weed control at 125 g/ha: 125 g ai/ha; for pest or weed control at 500 g/ha: 500 g ai/ha
Summary of the method: as §1

corn (Zea mays) = assay: as above; details: Zea mays, post-emergence, 240 h, 0 to 100 scale, 0 no effect, 100 complete control, read-out: Corn plant response rating; for plant injury at 125 g/ha: 125 g ai/ha; for plant injury at 500 g/ha: 500 g ai/ha
Summary of the method: as §1

[11] = test system: foxtail, giant (giant foxtail, Setaria faberii); assay: as above; details: Setaria faberi, post-emergence, 240 h, 0 to 100 scale, 0 no effect, 100 complete control, read-out: Foxtail, Giant plant response rating; for pest or weed control at 125 g/ha: 125 g ai/ha; for pest or weed control at 500 g/ha: 500 g ai/ha
Summary of the method: as §1

[12] = test system: galium (catchweed bedstraw, Galium aparine); assay: as above; details: Galium, post-emergence, 240 h, 0 to 100 scale, 0 no effect, 100 complete control, read-out: Galium plant response rating; for pest or weed control at 125 g/ha: 125 g ai/ha; for pest or weed control at 500 g/ha: 500 g ai/ha
Summary of the method: as §1

kochia (Kochia scoparia) [13] = assay: as above; details: Bassia scoparia, post-emergence, 240 h, 0 to 100 scale, 0 no effect, 100 complete control, read-out: Kochia plant response rating; for pest or weed control at 125 g/ha: 125 g ai/ha; for pest or weed control at 500 g/ha: 500 g ai/ha
Summary of the method: as §1

[14] = test system: pigweed (Amaranthus retroflexus); assay: as above; details: Amaranthus retroflexus, post-emergence, 240 h, 0 to 100 scale, 0 no effect, 100 complete control, read-out: Pigweed plant response rating; for pest or weed control at 125 g/ha: 125 g ai/ha; for pest or weed control at 500 g/ha: 500 g ai/ha
Summary of the method: as §1

[15] = test system: ragweed (common ragweed, Ambrosia elatior); assay: as above; details: Ambrosia artemisiifolia, post-emergence, 240 h, 0 to 100 scale, 0 no effect, 100 complete control, read-out: Ragweed plant response rating; for pest or weed control at 125 g/ha: 125 g ai/ha; for pest or weed control at 500 g/ha: 500 g ai/ha
Summary of the method: as §1

[16] = test system: ryegrass, It. (Italian ryegrass, Lolium multiflorum); assay: as above; details: Lolium multiflorum, post-emergence, 240 h, 0 to 100 scale, 0 no effect, 100 complete control, read-out: Ryegrass, It. plant response rating; for pest or weed control at 125 g/ha: 125 g ai/ha; for pest or weed control at 500 g/ha: 500 g ai/ha
Summary of the method: as §1

[17] = test system: wheat (Triticum aestivum); assay: as above; details: Triticum aestivum, post-emergence, 240 h, 0 to 100 scale, 0 no effect, 100 complete control, read-out: Wheat plant response rating; for plant injury at 125 g/ha: 125 g ai/ha; for plant injury at 500 g/ha: 500 g ai/ha
Summary of the method: as §1

| Compound | pest or weed control at 125 g/ha [1] [%] | pest or weed control at 500 g/ha [1] [%] | pest or weed control at 125 g/ha [2] [%] | pest or weed control at 500 g/ha [2] [%] | pest or weed control at 125 g/ha (kochia (Kochia scoparia) [3]) [%] | pest or weed control at 500 g/ha (kochia (Kochia scoparia) [3]) [%] | pest or weed control at 125 g/ha [4] [%] | pest or weed control at 500 g/ha [4] [%] | pest or weed control at 125 g/ha [5] [%] | pest or weed control at 500 g/ha [5] [%] | pest or weed control at 125 g/ha [6] [%] | pest or weed control at 500 g/ha [6] [%] | pest or weed control at 125 g/ha [9] [%] | pest or weed control at 500 g/ha [9] [%] | pest or weed control at 125 g/ha [10] [%] | pest or weed control at 500 g/ha [10] [%] | plant injury at 125 g/ha (corn (Zea mays)) [%] | plant injury at 500 g/ha (corn (Zea mays)) [%] | pest or weed control at 125 g/ha [11] [%] | pest or weed control at 500 g/ha [11] [%] | further results |
| --- | --- | --- | --- | --- | --- | --- | --- | --- | --- | --- | --- | --- | --- | --- | --- | --- | --- | --- | --- | --- | --- |
| Cc1cc2ccc(C)c(-c3c(O)c(C)nn(C)c3=O)c2o1 [Compound 10, 4-(2,6-dimethyl-7-benzofuranyl)-5-hydroxy-2,6-dimethyl-3(2H)-pyridazinone] | 80 | 90 | 80 | 100 | 100 | 100 | 100 | 100 | 90 | 90 | 100 | 100 | 50 | 90 | 60 | 90 | 10 | 30 | 80 | 90 | pest or weed control at 250 g/ha [7]: 0%; pest or weed control at 250 g/ha [8]: 0%; plant injury at 250 g/ha (rice (Oryza sativa)): 0%; pest or weed control at 125 g/ha [12]: 100%; pest or weed control at 500 g/ha [12]: 100%; pest or weed control at 125 g/ha (kochia (Kochia scoparia) [13]): 100%; pest or weed control at 500 g/ha (kochia (Kochia scoparia) [13]): 100%; pest or weed control at 125 g/ha [14]: 90%; pest or weed control at 500 g/ha [14]: 100%; pest or weed control at 125 g/ha [15]: 100%; pest or weed control at 500 g/ha [15]: 100%; pest or weed control at 125 g/ha [16]: 100%; pest or weed control at 500 g/ha [16]: 100%; plant injury at 125 g/ha [17]: 20%; plant injury at 500 g/ha [17]: 60% |
| CC(=O)Oc1c(C)nn(C)c(=O)c1-c1cccc2cc(C)oc12 [Compound 13, 5-(acetyloxy)-2,6-dimethyl-4-(2-methyl-7-benzofuranyl)-3 (2H)-pyridazinone] | 20 | 60 | 10 | 60 | 0 | 100 | 40 | 100 | 40 | 80 | 100 | 100 | 0 | 50 | 60 | 80 | 0 | 20 | 30 | 50 | pest or weed control at 125 g/ha [12]: 80%; pest or weed control at 500 g/ha [12]: 90%; pest or weed control at 125 g/ha (kochia (Kochia scoparia) [13]): 50%; pest or weed control at 500 g/ha (kochia (Kochia scoparia) [13]): 80%; pest or weed control at 125 g/ha [14]: 60%; pest or weed control at 500 g/ha [14]: 70%; pest or weed control at 125 g/ha [15]: 50%; pest or weed control at 500 g/ha [15]: 70%; pest or weed control at 125 g/ha [16]: 90%; pest or weed control at 500 g/ha [16]: 100%; plant injury at 125 g/ha [17]: 0%; plant injury at 500 g/ha [17]: 20% |
